This is an account of results in patent publication US12569438B2, “Nanomaterials containing constrained lipids and uses thereof” (GEORGIA TECH RESEARCH CORPORATION, priority 2019, dated 2026).

The experiment relates to splenic T cells. The experiment in a line: DNA barcode/siGFP high throughput in vivo screen: delivery and enrichment of pooled LNPs in GFP^Low splenic T cells. The arrangement: species or system mice. The conditions noted are these: pooled LNPs 1.5 mg/kg total iv, 3 days. The text has this:
DNA Barcoding. Each chemically distinct LNP was formulated to carry its own unique DNA barcode and siRNA. For example, LNP1 carried DNA barcode 1 and siICAM2, while the chemically distinct LNP2 carried DNA barcode 2 and siGFP. Single stranded DNA sequences were purchased from Integrated DNA Technologies (IDT). To ensure equal amplification of each sequence, we included universal forward and reverse primer regions. Each barcode was distinguished using a unique 8 nucleotide sequence. An 8 nucleotide sequence can generate 65,536 distinct barcodes. 156 distinct sequences designed to prevent sequence ‘bleaching’ on the Illumina MiniSeq sequencing machine were used.
Animal Experiments. […] Mice were injected intravenously via the lateral tail vein. The nanoparticle concentration was determined using NanoDrop (Thermo Scientific).
Cell Isolation & Staining. […]
LNP delivery of siRNA to target cells (in this case, T lymphocytes) as well as 8 off-target cell types in vivo was evaluated. siGFP chemically modified to reduce immunostimulation and enhance on-target silencing via preferential antisense RISC loading (FIG. S2A) was used. […] The GFP acted as the functional delivery readout. […] Thus, 3 days after injecting mice, GFP^Low cells were isolated using fluorescence activated cell sorting (FACS), and deep sequenced to quantify the efficiency with which all N LNPs delivered barcodes into the cells. […]

On to `CCCCC/C=C\C/C=C\CCCCCCCC(=O)OCC(COC(=O)C[C@]12CC3CC(C[C@@H](C3)C1)C2)COC(=O)OCCCN(CC)CC` (some centres unmarked) [Lipomer 11-A, 3-[(1-Adamantanyl)acetoxy]-2-{[3-(diethylamino)propoxycarbonyloxy]methyl}propyl (9Z,12Z)-9,12-octadecadienoate], for which the “Normalized DNA delivery” value (GFP^Low splenic T cells) was “significantly more delivery than 11-L and 11-S”. In addition, the “Enrichment in T Cells” value (splenic T cells, top 10% vs bottom 10% LNPs, DSPC formulations) is reported as “most enriched”.
